The test system of data set [1] is Klebsiella pneumoniae ATCC 43816. In words: Proof-of-concept murine respiratory infection model, IV bolus. To be noted: CD-1 mice, 20 mg/kg IV bolus TID, 26 h. In kind it is in vivo. The protocol: Compound (I) and comparative compound (III) were evaluated in proof-of-concept studies in murine models for the treatment of a respiratory infection with Gram-negative bacteria of the order Enterobacterales, a bacteraemia or bloodstream infection with Gram-negative bacteria of the order Enterobacterales, and a urinary tract infection with Gram-negative bacteria of the order Enterobacterales. Each dot, triangle or square indicator represents a single mouse. LOD refers to the limit of detection of the bacteria. […] Each of the proof-of-concept studies was carried out separately. By vehicle is meant pharmaceutically acceptable carrier or excipient. For the proof-of-concept study for the treatment of a respiratory infection caused or exacerbated by Gram-negative bacteria of the order Enterobacterales, CD-1 mice were infected with Klebsiella pneumoniae ATCC 43816. Two hours after infection (‘pre-treatment’ in FIG. 2), a vehicle (20% hydroxypropyl β cyclodextrin) containing no compound (I) or comparative compound (III), or a vehicle (20% hydroxypropyl β cyclodextrin) containing compound (I) or comparative compound (III), was administered by IV bolus at 20 mg/kg, TID (8 hrs apart), over one day.

Data set [2] relates to E. coli BAA-2469 (NDM-1 positive). In words: Proof-of-concept murine bacteraemia or bloodstream infection model, IV bolus. The format is in vivo. To be noted: CD-1 mice, single dose IV bolus 20 mg/kg. The protocol: Compound (I) and comparative compound (III) were evaluated in proof-of-concept studies in murine models for the treatment of a respiratory infection with Gram-negative bacteria of the order Enterobacterales, a bacteraemia or bloodstream infection with Gram-negative bacteria of the order Enterobacterales, and a urinary tract infection with Gram-negative bacteria of the order Enterobacterales. Each dot, triangle or square indicator represents a single mouse. LOD refers to the limit of detection of the bacteria. […] Each of the proof-of-concept studies was carried out separately. By vehicle is meant pharmaceutically acceptable carrier or excipient.
For the proof-of-concept study for the treatment of a bacteraemia or bloodstream infection with Gram-negative bacteria of the order Enterobacterales, CD-1 mice were infected with human urine isolate E. coli BAA-2469 (NDM-1 positive). One hour after infection (‘pre-treatment’ in FIG. 3), a vehicle (20% hydroxypropyl β cyclodextrin) containing no compound (I) or comparative compound (III), or a vehicle (20% hydroxypropyl β cyclodextrin) containing compound (I) or comparative compound (III), was administered by as a single dose IV bolus at 20 mg/kg.

Another data set relates to E. coli UTI89. In words: Proof-of-concept murine urinary tract infection model, IV bolus. In kind it is in vivo. Particulars: IV bolus 20 mg/kg TID over 3 days, 96 h. The protocol: Compound (I) and comparative compound (III) were evaluated in proof-of-concept studies in murine models for the treatment of a respiratory infection with Gram-negative bacteria of the order Enterobacterales, a bacteraemia or bloodstream infection with Gram-negative bacteria of the order Enterobacterales, and a urinary tract infection with Gram-negative bacteria of the order Enterobacterales. Each dot, triangle or square indicator represents a single mouse. LOD refers to the limit of detection of the bacteria. […] Each of the proof-of-concept studies was carried out separately. By vehicle is meant pharmaceutically acceptable carrier or excipient. For the proof-of-concept study for the treatment of a urinary tract infection with Enterobacterales, female C3H/HeN mice were infected with E. coli UTI89. Twenty-four hours after infection (‘pre-treatment’ in FIGS. 4a-c), a vehicle (20% hydroxypropyl β cyclodextrin) containing no compound (I) or comparative compound (III), or a vehicle (20% hydroxypropyl β cyclodextrin) containing compound (I) or comparative compound (III), was administered by IV bolus of 20 mg/kg, TID (8 hrs apart), over 3 days.

Data set [3] has as its system Providencia spp. (10 isolates). The data set can be described thus: MIC by broth microdilution versus Providencia spp. isolates. In kind it is cell-based. How it is done: (§1) Minimum Inhibitory Concentration (MIC90) versus 100 isolates of Escherichia coli and Klebsiella pneumonia were determined. The Minimum Inhibitory Concentration at which 90% of the isolates (strains) are inhibited (MIC90) were measured by broth microdilution in line with EUCAST susceptibility testing standards (www.eucast.org). Bacterial inocula were prepared at ca 1×10^6 CFU/mL by diluting 100-fold a 0.5 McFarland suspension. Antibacterial panels containing 50 μl of antibacterial solutions at 2×the final concentrations were diluted 2-fold with 50 μl of inoculum to give a final inoculum of ca 5×10^5 CFU/ml and desired test concentrations of antibacterial agents (0.03-64 μg/mL). The plates were incubated according to the guidelines of the Clinical and Laboratory Standards Institute (Clinical and Laboratory Standards Institute. Methods for Dilution Antimicrobial Susceptibility Tests for Bacteria That Grow Aerobically; Approved Standard-Eleventh Edition, CLSI document […], 11 Jan. 2018). The MIC90 (μg/ml) is the MIC value at which greater than or equal to 90% of the isolates (strains) within a test population are inhibited. Minimum Inhibitory Concentrations (MICs) versus Proteus spp. and Providencia spp. were determined for compound (I) and comparative compound (III) using the methodology outlined above for the 100 isolates of Escherichia coli and Klebsiella pneumonia.
(In general: Broth dilution looks for growth in wells or tubes with falling amounts of substance.)

The subject of another data set is E. coli UT189. The data set can be described thus: Further proof-of-concept murine urinary tract infection model, intravenous infusion. The format is in vivo. Particulars: 96 h. How it is done:
Compound (I) was evaluated in further proof-of-concept studies in murine models for the treatment of a respiratory infection with Gram-negative bacteria of the order Enterobacterales, and a urinary tract infection with Gram-negative bacteria of the order Enterobacterales. Each dot, triangle or square indicator represents a single mouse. LOD refers to the limit of detection of the bacteria. […] Each of the proof-of-concept studies was carried out separately. By vehicle is meant pharmaceutically acceptable excipient or carrier. For the further proof-of-concept study for the treatment of a urinary tract infection with Enterobacterales, female C3H/HeN mice were infected with E. coli UT189. Twenty-four hours after infection (‘pre-treatment’ in FIGS. 6a-c), mice were either treated with a vehicle control (20% hydroxypropyl β cyclodextrin) containing no compound (I), or a vehicle (20% hydroxypropyl β cyclodextrin) containing compound (I), administered by intravenous infusion for 1 hour (QD) with a dose of 20 mg/kg of compound (I). For some mice who received vehicle containing compound (I), an additional 1-hour continuous intravenous infusion was administered 5 hours after the time at which the first administration begun (BID, 5 hrs apart). The once or twice daily administration was continued for three days. For QD, administration took place between 24 to 25 hours, 48 to 49 hours, and 72 to 73 hours after infection, and for BID, administration took place between 24 to 25 hours, 29 to 30 hours, 48 to 49 hours, 53 to 54 hours, 72 to 73 hours and 77 to 78 hours after infection.

In data set [4] the test system is Proteus spp. (10 isolates). In words: MIC by broth microdilution versus Proteus spp. isolates. The format is cell-based. How it is done:
as §1

The test system of data set [5] is Klebsiella pneumonia (100 isolates). The data set can be described thus: MIC90 by broth microdilution (EUCAST), 100 isolates of Klebsiella pneumonia. In kind it is cell-based. Particulars: test concentrations 0.03-64 μg/mL. How it is done: as §1, with “inhibited.” for “inhibited. Minimum Inhibitory Concentrations (MICs) versus Proteus spp. and Providencia spp. were determined for compound (I) and comparative compound (III) using the methodology outlined above for the 100 isolates of Escherichia coli and Klebsiella pneumonia.”

Data set [6] concerns 44 ligands (including receptors, transporters, ion channels, enzymes and kinases). The data set can be described thus: In vitro safety pharmacology binding assays (CEREP profile). Particulars: 10 μM, 44 ligands tested, radioligand binding. The protocol: In vitro pharmacology binding assays were carried out for compound (I), comparative compound (II) and comparative compound (III) to evaluate the percentage of inhibition against 44 ligands (including receptors, transporters, ion channels, enzymes and kinases) at a concentration of 10 μM of compound (I), comparative compound (II) or comparative compound (III). Compound binding was calculated as a percentage of inhibition of the binding of a radioactively labelled ligand specific for each target. Results showing an inhibition higher than 50% are considered to represent discernible effects of compound (I), comparative compound (II) or comparative compound (III). […] The in vitro pharmacology binding assays for compound (I) and comparative compounds (II) and (III) was carried out separately over different days, and compared in FIGS. 1a, 1b, 1c, and 1d.

In data set [7] the test system is Escherichia coli (100 isolates). In words: MIC90 by broth microdilution (EUCAST), 100 isolates of Escherichia coli. The format is cell-based. Particulars: test concentrations 0.03-64 μg/mL. How it is done:
as §1, with “inhibited.” for “inhibited. Minimum Inhibitory Concentrations (MICs) versus Proteus spp. and Providencia spp. were determined for compound (I) and comparative compound (III) using the methodology outlined above for the 100 isolates of Escherichia coli and Klebsiella pneumonia.”

Where [8] appears, read: both QD and BID daily administration.

Experimental findings from patent US20250276965A1, “PROCESS FOR THE PREPARATION OF ANTIBACTERIAL COMPOUNDS” (DISCUVA LIMITED, priority 2021, published 2025) are described below.

For `Cc1cnccc1-c1[nH]c(N)nc1-c1ccc2c(c1)N(C(=O)CN)CCO2` [Comparative Compound (III), reference compound], the “CFU value in the lung relative to stasis level” value in [1] is “relatively close to the stasis level”. The “CFU value in the blood relative to stasis level” value in [2] (9 h) is “on or above the stasis level”.

As to `Cc1cnccc1-c1[nH]c(N)nc1-c1ccc2c(c1)N(C(=O)C(C)(C)N)CCO2` [Compound (I), 2-amino-1-(6-(2-amino-5-(3-methylpyridin-4-yl)-1H-imidazol-4-yl)-2,3-dihydro-4H-benzo[b][1,4]oxazin-4-yl)-2-methylpropan-1-one], in the data set with E. coli UTI89, the “more efficacious than comparative compound (III) in reducing the CFU in the bladder” value came to 3 log and the “more efficacious than comparative compound (III) in reducing the CFU in the urine” value came out at 3 log. Besides, the “bacterial burden in the urine at end of study” value in the data set with E. coli UTI89 (female C3H/HeN mice) is listed as “below the limit of detection (LOD)”. Further, in data set [3], the “MIC Range Providencia spp. (10 isolates)” value was 0.5 to 16 µg/mL. In the data set with E. coli UT189 (BID administration), the “bacterial burden in the kidney at end of study” value is on record as “below the limit of detection (LOD)”. In addition, in the data set with E. coli UT189 (setting [8]), the “bacterial burden in the bladder at end of study” value is reported as “below the limit of detection (LOD)” and the “bacterial burden in the urine at end of study” value is recorded as “below the limit of detection (LOD)”. In addition, the “MIC Range Proteus spp. (10 isolates)” value in data set [4] is 8 to 32 µg/mL. Besides, the “MIC Range Klebsiella pneumonia (100 isolates)” value in data set [5] is 0.25 to 8.00 µg/mL. Besides, the “ligands with inhibition higher than 50%” value in [6] is recorded as “only a single ligand”. In data set [7], the “MIC Range Escherichia coli (100 isolates)” value lay within 0.12 to 4.00 µg/mL. In data set [2] (9 h after initial infection), the “bacterial burden in the blood at end of study” value is given as “below the limit of detection (LOD)”.
